The values below come from ChEMBL document CHEMBL3779893, “Identification of novel GLUT inhibitors” (Bioorg Med Chem Lett, 2016).

pIC50: −log10 of the molar value.

The target of data set [1] is T1, Solute carrier family 2, facilitated glucose transporter member 1 (Homo sapiens, UniProt P11166).
T1 sequence (P11166 whole entry): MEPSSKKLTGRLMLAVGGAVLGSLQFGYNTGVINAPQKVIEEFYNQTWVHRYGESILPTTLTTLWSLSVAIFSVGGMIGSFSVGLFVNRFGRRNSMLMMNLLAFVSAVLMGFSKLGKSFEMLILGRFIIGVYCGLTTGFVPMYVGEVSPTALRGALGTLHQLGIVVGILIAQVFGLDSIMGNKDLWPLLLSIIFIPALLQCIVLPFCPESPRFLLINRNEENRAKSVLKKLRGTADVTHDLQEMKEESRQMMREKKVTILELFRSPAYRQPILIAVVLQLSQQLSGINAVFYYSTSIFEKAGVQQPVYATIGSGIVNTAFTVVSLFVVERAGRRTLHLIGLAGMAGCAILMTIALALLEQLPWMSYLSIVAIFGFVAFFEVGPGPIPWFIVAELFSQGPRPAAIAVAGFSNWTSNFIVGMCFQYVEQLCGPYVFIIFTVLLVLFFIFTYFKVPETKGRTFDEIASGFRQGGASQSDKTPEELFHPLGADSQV
Nature of the data set: Inhibition of human GLUT1 expressed in DLD1 cells assessed as ATP production co-incubated with 100 mM glucose for 16 hrs by CellTiter-Glo assay in presence of oxidative phosphorylation inhibitor rotenone. The class given is cell-based, DLD-1.

The target in data set [2] is T2, Solute carrier family 2, facilitated glucose transporter member 2 (Homo sapiens, UniProt P11168).
T2 sequence (P11168 whole entry): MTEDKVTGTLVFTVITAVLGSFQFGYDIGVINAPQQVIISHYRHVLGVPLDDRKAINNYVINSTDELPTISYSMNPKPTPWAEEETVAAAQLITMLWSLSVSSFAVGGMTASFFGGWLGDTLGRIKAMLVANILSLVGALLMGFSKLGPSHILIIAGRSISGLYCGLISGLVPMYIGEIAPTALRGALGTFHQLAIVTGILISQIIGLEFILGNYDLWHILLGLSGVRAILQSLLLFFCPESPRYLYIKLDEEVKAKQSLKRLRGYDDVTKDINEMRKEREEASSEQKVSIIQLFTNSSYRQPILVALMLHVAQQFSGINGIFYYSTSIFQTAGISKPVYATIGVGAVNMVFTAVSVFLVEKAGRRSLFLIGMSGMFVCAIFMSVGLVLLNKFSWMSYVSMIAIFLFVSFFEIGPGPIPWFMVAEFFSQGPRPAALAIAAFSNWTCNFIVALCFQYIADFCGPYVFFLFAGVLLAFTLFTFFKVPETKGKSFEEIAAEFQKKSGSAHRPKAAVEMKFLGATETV
Put plainly: Inhibition of human GLUT2 expressed in CHO cells assessed as ATP production co-incubated with 30 mM fructose for 16 hrs by CellTiter-Glo assay in presence of oxidative phosphorylation inhibitor rotenone. It is filed as cell-based. Background: Cellular ATP, detected with luciferase, serves as a proxy for viable cell number.

Data set [3] addresses T3, Solute carrier family 2, facilitated glucose transporter member 3 (Homo sapiens, UniProt P11169).
T3 sequence (P11169 whole entry): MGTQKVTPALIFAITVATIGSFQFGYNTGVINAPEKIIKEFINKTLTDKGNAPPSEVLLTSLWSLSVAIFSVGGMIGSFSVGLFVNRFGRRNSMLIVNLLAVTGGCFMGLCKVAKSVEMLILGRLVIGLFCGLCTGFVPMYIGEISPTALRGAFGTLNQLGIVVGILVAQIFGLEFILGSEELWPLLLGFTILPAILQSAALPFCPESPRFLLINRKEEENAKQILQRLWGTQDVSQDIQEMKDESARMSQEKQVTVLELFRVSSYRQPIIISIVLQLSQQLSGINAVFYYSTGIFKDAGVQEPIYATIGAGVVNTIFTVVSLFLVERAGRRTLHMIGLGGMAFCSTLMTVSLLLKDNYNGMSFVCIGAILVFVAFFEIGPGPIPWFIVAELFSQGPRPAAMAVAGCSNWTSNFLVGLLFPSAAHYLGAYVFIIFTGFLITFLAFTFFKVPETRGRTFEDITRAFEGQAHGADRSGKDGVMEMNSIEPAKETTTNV
Put plainly: Inhibition of human GLUT3 expressed in GLUT1 knock-out DLD1 cells assessed as ATP production co-incubated with 300 mM glucose for 16 hrs by CellTiter-Glo assay in presence of oxidative phosphorylation inhibitor rotenone. It is filed as cell-based, DLD-1.

A short description of data set [4]: Intrinsic clearance in rat hepatocytes. It is filed as ADME, cell-based, Hepatocyte. As to conditions: read-out: CLH (converted).
The nature of data set [5]: Intrinsic clearance in human liver microsomes. It is filed as ADME. As to conditions: read-out: CLH (converted).
A short description of data set [6]: Apparent permeability from apical to basolateral side in human Caco2 cells at 2 uM after 2 hrs. As to conditions: Caco-2. It is filed as ADME, cell-based.
A short description of data set [7]: Efflux ratio of apparent permeability from basolateral to apical side over apical to basolateral side in human Caco2 cells. The class given is ADME, cell-based. Conditions: Caco-2. In general terms: Caco-2 cells form a polarised layer with tight junctions and transporters.
A short description of data set [8]: Intrinsic clearance in mouse liver microsomes. Conditions: read-out: CLH (converted). The class given is ADME. On the technique in general: Liver microsomes are vesicles of endoplasmic reticulum, rich in cytochrome P450 enzymes.
Data set [9] can be described thus: Intrinsic clearance in human hepatocytes. The class given is ADME, cell-based, Hepatocyte. Conditions: read-out: CLH (converted).
A short description of data set [10]: Blood clearance in Wistar rat at 0.3 mg/kg, iv and 5 mg/kg, po. The class given is ADME, organism-based. Conditions: whole blood.
Data set [11] can be described thus: Volume of distribution at steady state in Wistar rat at 0.3 mg/kg, iv and 5 mg/kg, po. Conditions: in vivo, read-out: Vdss. The class given is ADME, organism-based.
The nature of data set [12]: Terminal half life in Wistar rat at 0.3 mg/kg, iv and 5 mg/kg, po. It is filed as ADME, organism-based. Conditions: in vivo, read-out: beta t1/2 (converted).
The nature of data set [13]: Cmax in Wistar rat at 5 mg/kg, po. The class given is ADME, organism-based. Set-up: dose 5 mg/kg, route oral. Conditions: in vivo.
Data set [14] in a line: Oral bioavailability in Wistar rat at 5 mg/kg. Conditions: in vivo. The class given is ADME, organism-based.
A short description of data set [15]: Intrinsic clearance in rat liver microsomes. Conditions: read-out: CLH (converted). It is filed as ADME.

As to `COc1ccccc1N1CCN(c2ncnc3c2cnn3C2CCCC2)CC1`, the negative-log IC50 (pIC50) (in general, −log10 of the IC50, conventionally taken in molar units) was 7.40 in [1], 5.70 in data set [2] and 6.92 in [3]. In addition, the CLint scaled in data set [4] is 3.7 L/h/kg; in data set [5], 0.83 L/h/kg. For the same compound, in [6], the Papp A→B (commonly how fast a substance crosses the layer from the apical side) at 2 h, 2 µM came to 153 nm/s. The efflux ratio (usually the permeability from basolateral to apical divided by that in the opposite direction, in the common usage) in data set [7] is 0.33.

As for `COc1ccc(F)cc1N1CCN(c2ncnc3c2cnn3-c2ccccc2)CC1`, the values for the negative-log IC50 (pIC50) in data set [1], in data set [2] and in data set [3] were 9.00, under 5.00 and 8.00, respectively. Further, the CLint scaled in data set [4] was 2.6 L/h/kg; in data set [5], 0.37 L/h/kg.

As for `COc1ccccc1N1CCN(c2ncnc3c2cnn3-c2ccccc2F)CC1`, the results for the pIC50 in [1], in data set [2] and in [3] were 8.15, 5.96 and 7.40, respectively. Further, the CLint scaled was 2.2 L/h/kg in [4], 0.5 L/h/kg in [5], 1.7 L/h/kg in data set [8] and 0.79 L/h/kg in data set [9]. The apparent permeability from apical to basolateral (Papp A→B) at 2 h, 2 µM in data set [6] worked out at 175 nm/s. Also, in data set [7], the efflux ratio worked out at 0.42. This compound gave a clearance in data set [10] of 1.2 L/h/kg. Besides, the Vd in [11] stood at 1.9 L/kg. Moreover, the half-life in [12] is 2.7 h. Moreover, the highest level in data set [13] (Cmax) was 1.7 µM. Moreover, in data set [14], the bioavailability – broadly, the share of a dose that reaches the circulation, judged against a reference dose that is usually intravenous – was 67%.

`COc1ccccc1N1CCN(c2ncnc3c2cnn3-c2ccccc2)CC1`: the negative-log IC50 (pIC50) was 7.60 in data set [1], under 5.00 in data set [2] and 6.60 in data set [3]. Besides, the CLint scaled in data set [4] was 2.7 L/h/kg; in data set [5] it was 0.14 L/h/kg; in [15] it was 2.2 L/h/kg; in [8], 2.3 L/h/kg; in [9], 0.84 L/h/kg. Further, in [6], the apical-to-basolateral permeability (Papp A→B) at 2 h, 2 µM came out at 59 nm/s. For the same compound, the efflux ratio in data set [7] amounted to 0.29.

As for `COc1cccc(N2CCN(c3ncnc4c3cnn4-c3ccccc3)CC2)c1`, the pIC50 in data set [1] is 6.74; in data set [2], 5.83; in data set [3], 6.49.

Regarding `COc1ccccc1N1CCN(c2ncnc3c2cnn3-c2cccc(F)c2)CC1`, the pIC50 in data set [1] was 7.46; in data set [2], under 5.00; in [3] it was 6.92. Further, the figures for the CLint scaled in data set [5] and in data set [8] were 0.55 L/h/kg and 1.9 L/h/kg, respectively.

As for `COc1cccc(-n2ncc3c(N4CCN(c5ccccc5OC)CC4)ncnc32)c1`, the pIC50 in data set [1] was 6.70; in data set [2], 6.05; in data set [3], 6.77.

For the compound `COc1ccccc1N1CCN(c2ncnc3c2cnn3-c2ccc(C)cc2)CC1`, the values for the pIC50 in data set [1], in data set [2] and in data set [3] were 5.82, 5.00 and 5.52, respectively.

Regarding `COc1ccccc1N1CCN(c2ncnc3c2cnn3-c2ccccc2)C(C)C1` (stereo unspecified), the negative-log IC50 (pIC50) in data set [1] is 6.92; in [2] it was 5.60; in [3], 6.32.

On to `COc1ncccc1N1CCN(c2ncnc3c2cnn3-c2ccccc2)CC1`, for which the negative logarithm of the IC50 (pIC50) in [1] is 6.74; in data set [2] it was 5.87; in data set [3], 6.17.

With `COc1cccc(F)c1N1CCN(c2ncnc3c2cnn3-c2ccccc2)CC1`, the pIC50 in data set [1] was 6.96; in data set [2], 5.92; in data set [3], 5.80.

As for `COc1ccccc1N1CCN(c2ncnc3c2cnn3-c2ccccn2)CC1`, the figures for the pIC50 in [1], in data set [2] and in data set [3] were 6.29, 5.10 and 6.03, respectively.

Regarding `COc1ccccc1N1CCN(c2ncnc3c2cnn3-c2ccccc2OC)CC1`, the negative logarithm of the IC50 (pIC50) in [1] is 7.30; in data set [2], 5.92; in [3] it was 6.96.

As to `COc1ccc(N2CCN(c3ncnc4c3cnn4-c3ccccc3)CC2)cc1`, the values for the pIC50 in data set [1], in [2] and in data set [3] were 5.75, 5.06 and 5.75, respectively.

Turning to `COc1ccccc1N1CCN(c2ncnc3c2cnn3-c2cccnc2)CC1`, the pIC50 was 6.12 in [1], 5.22 in data set [2] and 5.82 in [3].
